Measurements taken from PubChem BioAssay AID330 (DTP/NCI, 2004).
Several values for one entry are separate records, joined by “and”; a condition that tells them apart may be missing. Equal values may be shown once. Toxic doses and inconclusive results are not listed.

System: P388 leukemia ip, CD2F1 mice, survival T/C
Assay: NCI In Vivo Anticancer Drug Screen. Data for tumor model P388 Leukemia (intraperitoneal) in CD2F1 (CDF1) mice
Conditions: endpoint: median survival time, higher = longer survival
Outline: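 Mice carrying the transplanted tumor received test compound or vehicle. Survival was recorded in each group, and the value is the treated-group measurement divided by that of the vehicle-treated control group.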

[1] = dose: 60.0 mg/kg/injection, schedule: Q01DX005 (ip), vehicle: saline
[2] = dose: 120.0 mg/kg/injection, schedule: Q01DX005 (ip), vehicle: saline
[3] = dose: 240.0 mg/kg/injection, schedule: Q01DX005 (ip), vehicle: saline
[4] = dose: 100.0 mg/kg/injection, schedule: Q04DX003 (ip), vehicle: Klucel (hydroxypropylcellulose) (HPC)
[5] = dose: 200.0 mg/kg/injection, schedule: Q04DX003 (ip), vehicle: Klucel (hydroxypropylcellulose) (HPC)
[6] = dose: 50.0 mg/kg/injection, schedule: Q01DX005 (ip), vehicle: saline with Tween-80
[7] = dose: 100.0 mg/kg/injection, schedule: Q01DX005 (ip), vehicle: saline with Tween-80
[8] = dose: 200.0 mg/kg/injection, schedule: Q01DX005 (ip), vehicle: saline with Tween-80
[9] = dose: 50.0 mg/kg/injection, schedule: Q01DX005 (ip), vehicle: Klucel (hydroxypropylcellulose) (HPC)
[10] = dose: 100.0 mg/kg/injection, schedule: Q01DX005 (ip), vehicle: Klucel (hydroxypropylcellulose) (HPC)
[11] = dose: 200.0 mg/kg/injection, schedule: Q01DX005 (ip), vehicle: Klucel (hydroxypropylcellulose) (HPC)
[12] = dose: 60.0 mg/kg/injection, schedule: Q01DX005 (ip), vehicle: saline with Tween-80
[13] = dose: 120.0 mg/kg/injection, schedule: Q01DX005 (ip), vehicle: saline with Tween-80
[14] = dose: 240.0 mg/kg/injection, schedule: Q01DX005 (ip), vehicle: saline with Tween-80
[15] = dose: 50.0 mg/kg/injection, schedule: Q01DX009 (ip), vehicle: saline with Tween-80
[16] = dose: 100.0 mg/kg/injection, schedule: Q01DX009 (ip), vehicle: saline with Tween-80
[17] = dose: 200.0 mg/kg/injection, schedule: Q01DX009 (ip), vehicle: saline with Tween-80
[18] = dose: 15.0 mg/kg/injection, schedule: Q01DX005 (ip), vehicle: saline with Tween-80
[19] = dose: 30.0 mg/kg/injection, schedule: Q01DX005 (ip), vehicle: saline with Tween-80
[20] = dose: 400.0 mg/kg/injection, schedule: Q04DX003 (ip), vehicle: Klucel (hydroxypropylcellulose) (HPC)
[21] = dose: 100.0 mg/kg/injection, schedule: Q04DX002 (ip), vehicle: Klucel (hydroxypropylcellulose) (HPC)
[22] = dose: 200.0 mg/kg/injection, schedule: Q04DX002 (ip), vehicle: Klucel (hydroxypropylcellulose) (HPC)
[23] = dose: 400.0 mg/kg/injection, schedule: Q04DX002 (ip), vehicle: Klucel (hydroxypropylcellulose) (HPC)

CCN1C(=O)C(C)C(=O)N(C)C1=O (centres undefined)
T/C [1]: 110 % of control | T/C [2]: 100 % of control | T/C [3]: 100 % of control

O=C(c1ccccc1)c1nc(-c2ccccc2)oc1-c1ccccc1
T/C (dose: 100.0 mg/kg/injection, schedule: Q01DX001 (ip), vehicle: saline): 100 % of control | T/C (dose: 200.0 mg/kg/injection, schedule: Q01DX001 (ip), vehicle: saline): 108 % of control | T/C (dose: 400.0 mg/kg/injection, schedule: Q01DX001 (ip), vehicle: saline): 99 % of control

CCCNC(=O)/C(C)=C(\C)c1ccccc1
T/C (dose: 50.0 mg/kg/injection, schedule: Q04DX003 (ip), vehicle: Klucel (hydroxypropylcellulose) (HPC)): 100 % of control | T/C [4]: 99 % of control | T/C [5]: 100 % of control

N#CC1=C(N)OC(/C=C/c2ccccc2)=C(C#N)C1c1ccccc1 (centres undefined)
T/C [6]: 97 % of control | T/C [7]: 98 % of control | T/C [8]: 89 % of control

CSCCC(NC(=O)CN(C)C(=O)OCc1ccccc1)C(=O)O (centres undefined)
T/C [6]: 100 % of control | T/C [7]: 100 % of control

Cc1ccc(S(=O)(=O)C(Cl)Cl)cc1
T/C (dose: 50.0 mg/kg/injection, schedule: Q04DX003 (ip), vehicle: saline with Tween-80): 100 % of control and 90 % of control and 93 % of control | T/C (dose: 100.0 mg/kg/injection, schedule: Q04DX003 (ip), vehicle: saline with Tween-80): 111 % of control and 118 % of control and 93 % of control | T/C (dose: 200.0 mg/kg/injection, schedule: Q04DX003 (ip), vehicle: saline with Tween-80): 104 % of control and 93 % of control | T/C (dose: 400.0 mg/kg/injection, schedule: Q04DX003 (ip), vehicle: saline with Tween-80): 102 % of control

CC(=O)OCC1OC(OC(C)=O)C(NC(=O)C(C)NC(=O)OCc2ccccc2)C(OC(C)=O)C1OC(C)=O (centres undefined)
T/C (dose: 12.5 mg/kg/injection, schedule: Q01DX009 (ip), vehicle: other): 99 % of control | T/C (dose: 25.0 mg/kg/injection, schedule: Q01DX009 (ip), vehicle: other): 104 % of control | T/C (dose: 50.0 mg/kg/injection, schedule: Q01DX009 (ip), vehicle: other): 113 % of control | T/C (dose: 100.0 mg/kg/injection, schedule: Q01DX009 (ip), vehicle: other): 104 % of control | T/C (dose: 200.0 mg/kg/injection, schedule: Q01DX009 (ip), vehicle: other): 92 % of control

CC(NC(=O)C1CC(O)CN1C(=O)CN)C(=O)O (centres undefined)
T/C [9]: 96 % of control | T/C [10]: 110 % of control | T/C [11]: 94 % of control

Cc1ccc(C(C#N)C(=O)CCCC(=O)Nc2ccc(C)c(C)c2)cc1 (centres undefined)
T/C [12]: 109 % of control | T/C [13]: 100 % of control | T/C [14]: 100 % of control

NC(=S)c1cn(C2OC(CO)C(O)C2O)c2ncnc(N)c12 (centres undefined)
T/C (dose: 0.31 mg/kg/injection, schedule: Q01DX009 (ip), vehicle: saline): 100 % of control | T/C (dose: 0.63 mg/kg/injection, schedule: Q01DX009 (ip), vehicle: saline): 109 % of control | T/C (dose: 1.4 mg/kg/injection, schedule: Q01DX009 (ip), vehicle: saline with Tween-80): 119 % of control | T/C (dose: 5.0 mg/kg/injection, schedule: Q01DX009 (ip), vehicle: saline with Tween-80): 86 % of control

Cc1[nH]c(=O)[nH]c(=O)c1C=O
T/C [15]: 103 % of control | T/C [16]: 106 % of control | T/C [17]: 99 % of control

O=C1c2cccc3c([N+](=O)[O-])ccc(c23)C(=O)N1CCc1ccccn1
T/C [6]: 101 % of control | T/C [7]: 111 % of control | T/C [8]: 96 % of control

CC(=O)OCN1C(=O)C2C3C=CC(C2C1=O)C1C2C(=O)N(COC(C)=O)C(=O)C2C31 (centres undefined)
T/C (dose: 25.0 mg/kg/injection, schedule: Q01DX009 (ip), vehicle: saline with Tween-80): 117 % of control | T/C [15]: 115 % of control | T/C [17]: 180 % of control | T/C (dose: 400.0 mg/kg/injection, schedule: Q01DX009 (ip), vehicle: saline with Tween-80): 208 % of control

Nc1ccccc1S(=O)(=O)Nc1c(N)nc(SCC(=O)O)[nH]c1=O
T/C [18]: 98 % of control and 101 % of control | T/C [19]: 100 % of control and 95 % of control | T/C [12]: 100 % of control and 95 % of control | T/C (dose: 120.0 mg/kg/injection, schedule: Q01DX005 (ip), vehicle: Klucel (hydroxypropylcellulose) (HPC)): 87 % of control and 96 % of control | T/C [13]: 99 % of control and 98 % of control | T/C (dose: 240.0 mg/kg/injection, schedule: Q01DX005 (ip), vehicle: Klucel (hydroxypropylcellulose) (HPC)): 98 % of control and 93 % of control

CCOC(=O)C1(C)C(=O)CC(c2ccccc2)CC1c1ccccc1 (centres undefined)
T/C [6]: 100 % of control | T/C [7]: 96 % of control | T/C [8]: 99 % of control

O=[N+]([O-])c1ccc(/C=C/C=C\c2cccc(S(=O)(=O)F)c2)c(Cl)c1
T/C [4]: 90 % of control | T/C [5]: 90 % of control | T/C [20]: 90 % of control

NC1(O)C(=O)NC(=O)NC1=O
T/C [1]: 101 % of control | T/C [2]: 93 % of control | T/C [3]: 88 % of control

CC1=C(O)CC(/C(C)=C/Cl)OC1=O (centres undefined)
T/C [21]: 103 % of control | T/C [22]: 107 % of control | T/C [23]: 102 % of control

COc1c(Br)c2c(c([N+](=O)[O-])c1OC)C(=O)OC2
T/C (dose: 25.0 mg/kg/injection, schedule: Q01DX005 (ip), vehicle: Klucel (hydroxypropylcellulose) (HPC)): 103 % of control | T/C [9]: 96 % of control | T/C [10]: 96 % of control | T/C [11]: 104 % of control

NC(=S)N/N=C1/CC(=O)N(c2ccccc2)C1c1ccccc1 (centres undefined)
T/C [12]: 103 % of control | T/C [13]: 98 % of control | T/C [14]: 94 % of control

O=C(c1ccccc1)C(SSN1CCOCC1)C(=O)c1ccccc1
T/C [15]: 91 % of control | T/C [16]: 100 % of control | T/C [17]: 106 % of control

CCCCCn1cnc2cc(N3CCOCC3)c([N+](=O)[O-])cc2c1=O
T/C [4]: 103 % of control | T/C [5]: 96 % of control | T/C [20]: 96 % of control

O=C1C(=C(C(F)(F)F)C(F)(F)F)C2CCC1C2 (centres undefined)
T/C (dose: 3.13 mg/kg/injection, schedule: Q01DX009 (ip), vehicle: saline with Tween-80): 100 % of control | T/C (dose: 6.25 mg/kg/injection, schedule: Q01DX009 (ip), vehicle: saline with Tween-80): 110 % of control | T/C (dose: 12.5 mg/kg/injection, schedule: Q01DX009 (ip), vehicle: saline with Tween-80): 100 % of control

CCOc1ccc2nc3cc(I)ccc3c(N)c2c1
T/C (dose: 7.5 mg/kg/injection, schedule: Q01DX005 (ip), vehicle: saline with Tween-80): 102 % of control | T/C [18]: 100 % of control | T/C [19]: 112 % of control

CCCCNC(=O)OCCN(C)CCOC(=O)NCCCC
T/C [1]: 107 % of control | T/C [2]: 101 % of control

O=C(/C=C/c1c(-c2ccccc2)[nH]c2ccccc12)c1ccc([N+](=O)[O-])cc1
T/C [12]: 97 % of control | T/C [13]: 90 % of control | T/C [14]: 87 % of control

NC(=S)n1nc(-c2ccccc2)c(N=Nc2ccccc2[N+](=O)[O-])c1-c1ccccc1
T/C [21]: 99 % of control | T/C [22]: 110 % of control | T/C [23]: 105 % of control

O=c1c2sc3ccccc3c2ncn1/N=C/c1ccc(Cl)cc1
T/C [9]: 105 % of control | T/C [10]: 96 % of control | T/C [11]: 88 % of control

CCc1nc(N)nc(N)c1-c1ccc(Cl)c(S(=O)(=O)O)c1
T/C [12]: 103 % of control | T/C [13]: 98 % of control | T/C [14]: 98 % of control
